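Results reflect a 48-hour exposure of cells in 96-well plates to compound at five concentrations. TGI: concentration producing complete growth inhibition.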
Legend:
Test in all cases: DTP human tumour cell line panel, 48 h
[1] = tested on: OVCAR-4 ovarian
[2] = tested on: A498 renal
[3] = tested on: HT29 colon
[4] = tested on: MALME-3M melanoma
[5] = tested on: 786-0 renal
[6] = tested on: A549 NSCLC
[7] = tested on: RXF 393 renal
[8] = tested on: COLO 205 colon
[9] = tested on: M14 melanoma
[10] = tested on: HCT-116 colon
[11] = tested on: SK-MEL-2 melanoma
[12] = tested on: SK-OV-3 ovarian
[13] = tested on: SK-MEL-28 melanoma
[14] = tested on: BT-549 breast
[15] = tested on: KM12 colon
[16] = tested on: TK-10 renal
[17] = tested on: SR leukemia
[18] = tested on: PC-3 prostate
[19] = tested on: MDA-N
[20] = tested on: UO-31 renal
[21] = tested on: HCC-2998 colon
[22] = tested on: CCRF-CEM leukemia
[23] = tested on: NCI-H226 lung
[24] = tested on: NCI-H460 lung
[25] = tested on: LOX IMVI melanoma
[26] = tested on: OVCAR-5 ovarian
[27] = tested on: UACC-257 melanoma
[28] = tested on: MOLT-4 leukemia
[29] = tested on: NCI-H522 lung
[30] = tested on: HCT-15 colon
[31] = tested on: MDA-MB-435
[32] = tested on: SK-MEL-5 melanoma
[33] = tested on: NCI/ADR-RES ovarian
[34] = tested on: IGROV1 ovarian
[35] = tested on: HL-60(TB) leukemia
[36] = tested on: HOP-92 NSCLC
[37] = tested on: MCF7 breast
[38] = tested on: EKVX NSCLC
[39] = tested on: UACC-62 melanoma
[40] = tested on: T-47D breast
[41] = tested on: K-562 leukemia
[42] = tested on: OVCAR-8 ovarian
[43] = tested on: CAKI-1 renal
[44] = tested on: SF-268 CNS
[45] = tested on: HS 578T breast
[46] = tested on: SNB-75 CNS
[47] = tested on: DU-145 prostate
[48] = tested on: SN12C renal
[49] = tested on: HOP-62 NSCLC
[50] = tested on: SNB-19 CNS
[51] = tested on: SF-295 CNS
[52] = tested on: RPMI-8226 leukemia
[53] = tested on: MDA-MB-231 breast
[54] = tested on: ACHN renal
[55] = tested on: NCI-H23 lung
[56] = tested on: SW-620 colon
[57] = tested on: OVCAR-3 ovarian
[58] = tested on: U251 CNS

CC(O)c1cc2c(s1)C(=O)c1sccc1C2=O (stereo unspecified)
TGI [1]: 344 nM
TGI [2]: 429 nM
TGI [3]: 597 nM
TGI [4]: 48.6 nM
TGI [5]: 538 nM
TGI [6]: 767 nM
TGI [7]: 351 nM
TGI [8]: 1090 nM
TGI [9]: 49.4 nM
TGI [10]: 485 nM
TGI [11]: 215 nM
TGI [12]: 4180 nM
TGI [13]: 479 nM
TGI [14]: 175 nM
TGI [15]: 593 nM
TGI [16]: 459 nM
TGI [17]: > 100000 nM
TGI [18]: 1430 nM
TGI [19]: 36.7 nM
TGI [20]: 359 nM
TGI [21]: 402 nM
TGI [22]: > 100000 nM
TGI [23]: 428 nM
TGI [24]: 268 nM
TGI [25]: 290 nM
TGI [26]: 368 nM
TGI [27]: 35.8 nM
TGI [28]: > 100000 nM
TGI [29]: 602 nM
TGI [30]: 178 nM
TGI [31]: 52.2 nM
TGI [32]: 36.2 nM
TGI [33]: 590 nM
TGI [34]: 725 nM
TGI [35]: > 100000 nM
TGI [36]: 2060 nM
TGI [37]: 1890 nM
TGI [38]: 674 nM
TGI [39]: 126 nM
TGI [40]: 879 nM
TGI [41]: > 100000 nM
TGI [42]: 616 nM
TGI [43]: 1190 nM
TGI [44]: 610 nM
TGI [45]: > 100000 nM
TGI [46]: 218 nM
TGI [47]: 34.7 nM
TGI [48]: 192 nM
TGI [49]: 406 nM
TGI [50]: 292 nM
TGI [51]: 191 nM

CC[C@H](O)[C@H](C)C=C1SCCCS1
TGI [1]: > 100000 nM
TGI [2]: > 100000 nM
TGI [3]: > 100000 nM
TGI [52]: > 100000 nM
TGI [4]: > 100000 nM
TGI [5]: > 100000 nM
TGI [6]: > 100000 nM
TGI [7]: > 100000 nM
TGI [8]: > 100000 nM
TGI [9]: > 100000 nM
TGI [10]: > 100000 nM
TGI [11]: > 100000 nM
TGI [12]: > 100000 nM
TGI [13]: > 100000 nM
TGI [14]: > 100000 nM
TGI [15]: > 100000 nM
TGI [16]: > 100000 nM
TGI [17]: > 100000 nM
TGI [53]: > 100000 nM
TGI [18]: > 100000 nM
TGI [19]: > 100000 nM
TGI [20]: > 100000 nM
TGI [21]: > 100000 nM
TGI [22]: > 100000 nM
TGI [23]: > 100000 nM
TGI [25]: > 100000 nM
TGI [26]: > 100000 nM
TGI [54]: > 100000 nM
TGI [27]: > 100000 nM
TGI [28]: > 100000 nM
TGI [29]: > 100000 nM
TGI [30]: > 100000 nM
TGI [31]: > 100000 nM
TGI [32]: > 100000 nM
TGI [33]: > 100000 nM
TGI [34]: > 100000 nM
TGI [35]: 89700 nM
TGI [55]: > 100000 nM
TGI [36]: > 100000 nM
TGI [37]: > 100000 nM
TGI [38]: > 100000 nM
TGI [39]: > 100000 nM
TGI [41]: > 100000 nM
TGI [42]: > 100000 nM
TGI [43]: > 100000 nM
TGI [56]: > 100000 nM
TGI [44]: > 100000 nM
TGI [45]: > 100000 nM
TGI [46]: > 100000 nM
TGI [47]: > 100000 nM
TGI [48]: > 100000 nM
TGI [49]: > 100000 nM
TGI [57]: > 100000 nM
TGI [58]: > 100000 nM
TGI [51]: > 100000 nM

Reference: PubChem BioAssay (NCI)
